Data: ChEMBL document CHEMBL1158701, “Sesquiterpene phenylpropanoids from Ferula fukanensis and their nitric oxide production inhibitory effects” (J Nat Prod, 2005)
The source made the active and inactive calls. The rule behind the calls is not given here.

Assays:
RAW264.7 [1] = test: Inhibition of LPS/IFNgamma -induced NO production in mouse RAW264.7 cells after 16 hrs; assay type: functional, cell-based; details: RAW264.7, 16 h
RAW264.7 [2] = test: Inhibition of LPS/IFNgamma -induced NO production in mouse RAW264.7 cells at 30 ug/ml after 16 hrs; assay type: functional, cell-based

SMILES	IC50 (RAW264.7 [1])	Activity (RAW264.7 [2])
CC(C)=CC(=O)/C=C(/C)CCC[C@@]1(C)OC(=O)[C@H](C(=O)c2ccc(O)cc2O)[C@H]1C (relative stereo) [FUKANEDONE D]	27.8 µM	
CCCCOC(=O)C(=O)c1ccc(O)cc1O [FUKANEKETOESTER A]	113 µM	
COc1ccc(C(=O)[C@H]2C(=O)O[C@](C)(CC/C=C(\C)Cc3cc(C)co3)[C@@H]2C)c(O)c1 (relative stereo) [FUKANEDONE E]	76.2 µM	
COc1ccc(C(=O)[C@H]2C(=O)O[C@](C)(CC/C=C(\C)CCC=C(C)C)[C@@H]2C)c(O)c1 (relative stereo)		inactive
CC(C)=CCC/C(C)=C/CC[C@]1(C)OC(=O)[C@H](C(=O)c2ccc(O)cc2O)[C@H]1C (relative stereo)		inactive
CC(C)=CC(=O)/C=C(\C)CCC[C@@]1(C)OC(=O)[C@H](C(=O)c2ccc(O)cc2O)[C@H]1C (relative stereo) [FUKANEDONE C]	6.7 µM	
